# In PubChem BioAssay AID651893 (Broad Institute, 2012):
# pIC50: −log10 of the molar value.
# Tested on: T. b. rhodesiense STIB900 proliferation, Alamar blue, 72 h
# Assay: T. b. rhodesiense proliferation inhibition, dose response, STIB900 strain, plate reader, cherry pick (AID 651893)
compound,measurement,value
C[C@@H]1CN([C@@H](C)CO)C(=O)c2cccc(NC(=O)c3ccncc3)c2O[C@H]1CN(C)Cc1ccc(Oc2ccccc2)cc1,pIC50,6.15
